From ChEMBL document CHEMBL1201862, “PubChem BioAssay data set” (2004) come the findings set out here.

Holding throughout (type): functional
One test has as its target Beta-galactosidase (Escherichia coli, UniProt Q8VNN2). Put plainly: PubChem AID 485352.
Test [1] concerns the target T1, Type-1 angiotensin II receptor (Homo sapiens, UniProt P30556).
T1 sequence (P30556 whole entry): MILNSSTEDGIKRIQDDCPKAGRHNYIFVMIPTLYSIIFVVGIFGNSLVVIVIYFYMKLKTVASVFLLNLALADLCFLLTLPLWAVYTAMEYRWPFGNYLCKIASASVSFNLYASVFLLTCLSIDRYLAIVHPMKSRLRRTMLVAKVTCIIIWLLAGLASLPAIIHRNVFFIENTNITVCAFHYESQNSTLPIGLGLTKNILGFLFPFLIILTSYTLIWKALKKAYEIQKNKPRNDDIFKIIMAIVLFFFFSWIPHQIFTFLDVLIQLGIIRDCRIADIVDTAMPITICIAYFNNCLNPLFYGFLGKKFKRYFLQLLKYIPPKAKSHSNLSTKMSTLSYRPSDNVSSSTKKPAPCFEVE
Put plainly: antagonism of angiotensin II type 1 receptor – cell-based, uHTS hits, selectivity assay for APJ receptor antagonist project, dose response (AID 463214).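 Note: antagonist potency against angiotensin II stimulated AT1 response.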

Test [2] concerns the target 72 kDa type IV collagenase (Homo sapiens, UniProt P08253). Kind of test: Dose Response validation of uHTS RPN11 inhibitor hits using a MMP-2 Fluorescence assay.
In another test the target is Prothrombin (Bos taurus, UniProt P00735). Kind of test: thrombin protease inhibitors – biochemical, fluorescence polarization, uHTS hits, dose response (AID 602369).
Test [3] deals with 26S proteasome non-ATPase regulatory subunit 14 (Homo sapiens, UniProt O00487). Put plainly: inhibition of proteasome subunit RPN11 – biochemical, fluorescence polarization, uHTS hits, confirmation (AID 602368).
Chain of 26S proteasome non-ATPase regulatory subunit 14 (O00487 whole entry): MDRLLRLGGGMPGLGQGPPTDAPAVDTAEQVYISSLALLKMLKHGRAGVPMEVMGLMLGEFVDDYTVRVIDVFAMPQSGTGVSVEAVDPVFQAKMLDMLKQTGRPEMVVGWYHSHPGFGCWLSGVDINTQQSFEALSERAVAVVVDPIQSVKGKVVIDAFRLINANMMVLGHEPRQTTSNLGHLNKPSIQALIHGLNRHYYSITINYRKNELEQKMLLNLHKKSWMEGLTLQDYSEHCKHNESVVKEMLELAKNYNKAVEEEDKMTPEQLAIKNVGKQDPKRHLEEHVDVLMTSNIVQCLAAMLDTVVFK
The next test deals with HeLa. Kind of test: ATP-based viability loss in HeLa cells – cell-based, CellTiter-Glo luminescence, cherry-pick samples, cytotoxicity control for MITF activator project, dose response (AID 540259). The settings on record: Homo sapiens.
Test [4] concerns the target T2, Sentrin-specific protease 6 (Homo sapiens, UniProt Q9GZR1).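 Note: Luminescence-based dose-response confirmatory assay of SENP6 inhibition, following up an ultra-high-throughput screen.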
T2 sequence (Q9GZR1 whole entry): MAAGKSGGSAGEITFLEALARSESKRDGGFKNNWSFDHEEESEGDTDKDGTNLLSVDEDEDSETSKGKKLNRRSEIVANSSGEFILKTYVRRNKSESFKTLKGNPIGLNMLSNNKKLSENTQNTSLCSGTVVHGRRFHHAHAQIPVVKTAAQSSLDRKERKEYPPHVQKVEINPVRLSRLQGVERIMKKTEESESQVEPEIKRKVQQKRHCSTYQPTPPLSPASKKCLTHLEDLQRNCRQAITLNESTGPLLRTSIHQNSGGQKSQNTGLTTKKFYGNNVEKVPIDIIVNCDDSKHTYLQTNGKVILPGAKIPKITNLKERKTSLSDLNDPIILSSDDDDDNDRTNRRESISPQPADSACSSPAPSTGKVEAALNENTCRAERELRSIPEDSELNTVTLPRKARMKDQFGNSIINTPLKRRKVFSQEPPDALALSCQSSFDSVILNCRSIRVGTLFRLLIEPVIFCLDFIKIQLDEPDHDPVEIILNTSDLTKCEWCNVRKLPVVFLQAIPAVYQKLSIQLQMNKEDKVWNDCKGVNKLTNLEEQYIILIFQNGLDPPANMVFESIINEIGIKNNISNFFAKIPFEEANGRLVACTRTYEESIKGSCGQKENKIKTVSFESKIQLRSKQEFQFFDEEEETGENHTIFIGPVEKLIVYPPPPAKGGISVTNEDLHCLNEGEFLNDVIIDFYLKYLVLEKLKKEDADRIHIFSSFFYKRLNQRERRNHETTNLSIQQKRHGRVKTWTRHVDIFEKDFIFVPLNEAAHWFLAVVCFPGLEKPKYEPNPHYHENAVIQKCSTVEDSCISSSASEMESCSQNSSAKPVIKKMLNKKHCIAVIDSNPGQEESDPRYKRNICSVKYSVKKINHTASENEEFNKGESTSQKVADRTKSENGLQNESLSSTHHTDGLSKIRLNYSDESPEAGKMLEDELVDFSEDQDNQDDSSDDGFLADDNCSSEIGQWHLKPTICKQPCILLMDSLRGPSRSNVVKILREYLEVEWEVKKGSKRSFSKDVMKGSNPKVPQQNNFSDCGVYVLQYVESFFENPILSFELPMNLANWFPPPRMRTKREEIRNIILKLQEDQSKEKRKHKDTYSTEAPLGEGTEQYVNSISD

A further test has as its target T3, Caspase-3 (Homo sapiens, UniProt P42574).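 Note: Dose-response selectivity test against caspase-3 for candidate inhibitors of sentrin-specific proteases (SENPs).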
T3 sequence (P42574 whole entry): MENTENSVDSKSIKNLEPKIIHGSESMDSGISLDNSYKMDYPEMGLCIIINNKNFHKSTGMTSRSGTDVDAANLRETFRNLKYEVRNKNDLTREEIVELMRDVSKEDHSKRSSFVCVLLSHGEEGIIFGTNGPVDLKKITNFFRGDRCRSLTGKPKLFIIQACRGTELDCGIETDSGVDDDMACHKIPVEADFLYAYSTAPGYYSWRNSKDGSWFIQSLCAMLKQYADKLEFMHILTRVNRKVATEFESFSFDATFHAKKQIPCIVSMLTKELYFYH

Test [5] concerns the target T4, Sentrin-specific protease 7 (Homo sapiens, UniProt Q9BQF6).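 Note: Luminescence-based dose-response confirmation of ultra-high-throughput screening hits, measuring inhibition of SENP7.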
T4 sequence (Q9BQF6 whole entry): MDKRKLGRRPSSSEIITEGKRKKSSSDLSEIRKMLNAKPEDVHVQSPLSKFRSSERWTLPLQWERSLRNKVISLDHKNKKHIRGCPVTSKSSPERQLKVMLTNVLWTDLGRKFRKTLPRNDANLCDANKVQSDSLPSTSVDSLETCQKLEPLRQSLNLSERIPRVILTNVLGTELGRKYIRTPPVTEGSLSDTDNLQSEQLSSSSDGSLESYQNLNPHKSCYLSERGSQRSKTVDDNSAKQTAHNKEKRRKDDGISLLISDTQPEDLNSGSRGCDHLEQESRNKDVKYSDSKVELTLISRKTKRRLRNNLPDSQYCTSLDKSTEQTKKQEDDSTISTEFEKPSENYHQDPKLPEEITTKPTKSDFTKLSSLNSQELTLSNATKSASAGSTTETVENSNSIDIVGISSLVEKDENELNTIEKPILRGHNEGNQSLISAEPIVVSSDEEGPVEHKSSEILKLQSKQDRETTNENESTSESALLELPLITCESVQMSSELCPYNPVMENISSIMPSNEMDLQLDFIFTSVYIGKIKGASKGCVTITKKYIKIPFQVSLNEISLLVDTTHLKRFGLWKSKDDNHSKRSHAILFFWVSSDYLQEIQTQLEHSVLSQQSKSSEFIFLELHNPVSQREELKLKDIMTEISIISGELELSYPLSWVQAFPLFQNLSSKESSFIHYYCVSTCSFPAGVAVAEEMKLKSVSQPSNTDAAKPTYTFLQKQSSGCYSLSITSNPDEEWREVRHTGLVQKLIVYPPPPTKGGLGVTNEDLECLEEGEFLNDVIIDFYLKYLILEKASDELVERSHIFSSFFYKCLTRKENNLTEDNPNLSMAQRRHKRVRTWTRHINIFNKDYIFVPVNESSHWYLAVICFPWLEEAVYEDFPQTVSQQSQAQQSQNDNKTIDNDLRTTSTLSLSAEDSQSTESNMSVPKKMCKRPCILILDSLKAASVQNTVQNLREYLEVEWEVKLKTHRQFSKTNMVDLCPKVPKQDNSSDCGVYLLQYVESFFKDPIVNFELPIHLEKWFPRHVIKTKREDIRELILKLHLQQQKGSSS

Test [6] has as its target T5, Sentrin-specific protease 8 (Homo sapiens, UniProt Q96LD8).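 Note: luminescence read-out of SENP8 inhibition, dose-response confirmation following an ultra-high-throughput screen.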
T5 sequence (Q96LD8 whole entry): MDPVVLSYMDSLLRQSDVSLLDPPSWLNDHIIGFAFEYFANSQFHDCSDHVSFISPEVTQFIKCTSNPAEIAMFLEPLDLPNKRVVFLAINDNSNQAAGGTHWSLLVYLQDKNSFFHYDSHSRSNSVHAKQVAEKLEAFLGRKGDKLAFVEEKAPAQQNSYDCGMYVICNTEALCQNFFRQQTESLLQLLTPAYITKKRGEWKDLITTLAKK

Calls of active or inactive are those of the source. Cut-off read from the data, not from the text of the source, for most assays here: actives have a measured IC50 and inactives only a lower limit. Some results are limits rather than exact numbers.

Chain of 72 kDa type IV collagenase (P08253 whole entry): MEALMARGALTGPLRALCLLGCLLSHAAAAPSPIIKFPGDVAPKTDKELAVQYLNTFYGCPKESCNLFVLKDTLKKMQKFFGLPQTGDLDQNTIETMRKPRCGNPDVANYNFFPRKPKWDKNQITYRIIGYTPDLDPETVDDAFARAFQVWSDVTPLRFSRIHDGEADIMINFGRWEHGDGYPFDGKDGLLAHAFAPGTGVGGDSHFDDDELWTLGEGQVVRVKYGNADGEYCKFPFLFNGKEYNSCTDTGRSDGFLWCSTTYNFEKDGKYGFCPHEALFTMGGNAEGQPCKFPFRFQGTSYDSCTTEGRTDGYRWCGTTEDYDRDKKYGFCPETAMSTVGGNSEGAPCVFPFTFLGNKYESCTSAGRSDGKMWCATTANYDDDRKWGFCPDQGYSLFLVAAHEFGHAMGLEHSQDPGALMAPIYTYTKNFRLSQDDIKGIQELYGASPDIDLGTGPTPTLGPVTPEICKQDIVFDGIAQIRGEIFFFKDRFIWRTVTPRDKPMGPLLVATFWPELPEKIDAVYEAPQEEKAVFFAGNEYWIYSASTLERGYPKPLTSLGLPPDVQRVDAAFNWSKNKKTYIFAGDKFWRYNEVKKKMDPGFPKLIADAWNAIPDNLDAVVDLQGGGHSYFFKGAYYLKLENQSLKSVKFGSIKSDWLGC
Chain of Beta-galactosidase (Q8VNN2 whole entry): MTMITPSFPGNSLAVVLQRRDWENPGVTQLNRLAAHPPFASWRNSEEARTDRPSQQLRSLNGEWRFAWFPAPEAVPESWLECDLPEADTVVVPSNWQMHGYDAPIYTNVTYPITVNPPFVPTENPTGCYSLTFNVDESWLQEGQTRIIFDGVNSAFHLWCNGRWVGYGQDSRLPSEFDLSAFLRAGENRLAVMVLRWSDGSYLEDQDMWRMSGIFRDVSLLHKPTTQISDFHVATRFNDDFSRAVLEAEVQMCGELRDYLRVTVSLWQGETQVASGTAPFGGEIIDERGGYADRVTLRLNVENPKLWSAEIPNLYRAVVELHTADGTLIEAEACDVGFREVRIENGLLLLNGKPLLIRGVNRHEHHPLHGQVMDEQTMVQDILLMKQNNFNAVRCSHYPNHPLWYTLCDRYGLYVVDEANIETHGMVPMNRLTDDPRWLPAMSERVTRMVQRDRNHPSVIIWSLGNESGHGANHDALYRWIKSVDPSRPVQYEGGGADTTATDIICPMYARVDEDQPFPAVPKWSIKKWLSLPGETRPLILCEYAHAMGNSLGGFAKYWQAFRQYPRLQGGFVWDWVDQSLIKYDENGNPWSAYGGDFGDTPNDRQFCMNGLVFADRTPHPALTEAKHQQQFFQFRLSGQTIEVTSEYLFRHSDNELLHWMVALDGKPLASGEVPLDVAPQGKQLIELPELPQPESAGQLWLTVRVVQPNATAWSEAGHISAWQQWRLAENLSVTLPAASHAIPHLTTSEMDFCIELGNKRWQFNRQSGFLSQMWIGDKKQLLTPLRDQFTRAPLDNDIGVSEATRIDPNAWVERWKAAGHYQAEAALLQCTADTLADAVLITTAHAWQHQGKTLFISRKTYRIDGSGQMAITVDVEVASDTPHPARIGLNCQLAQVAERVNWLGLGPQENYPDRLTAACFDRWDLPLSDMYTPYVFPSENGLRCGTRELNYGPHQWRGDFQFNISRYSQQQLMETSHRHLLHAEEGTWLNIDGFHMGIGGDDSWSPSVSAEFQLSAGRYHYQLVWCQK

For `NNc1nc(-c2ccccc2)cc(-c2ccc(Br)cc2)n1`, on Beta-galactosidase, the EC50 was > 40 µM (inactive). Further, the IC50 in test [1] was 2.09 µM (active).
Turning to `O=C(O)CCCCN1C(=O)/C(=C\c2ccc(OCc3ccccc3)c(OCc3ccccc3)c2)SC1=S`, the IC50 in [2] is > 100 µM (inactive); at Prothrombin it was 29.3 µM (active); in test [3], 45.4 µM (active).
On to `Fc1ccccc1CSc1nnc(-c2ccccc2)o1`, for which, in the test with HeLa, the half-maximal activity concentration (AC50) is 74 µM (active). Also, the IC50 is 36.1 µM (active) in test [4], 32 µM (active) at Caspase-3, 12 µM (active) in test [5] and 53 µM (active) in test [6].
